In patent US20110251135A1, “INHIBITORS OF PERITONEAL SEEDING OF CANCER CELLS” (University of Utah Research Foundation, priority 2008, published 2011):
“Also recorded” adds a separate entry of the source.

Assays:
Format in all cases: cell-based, human
[1] = tested on: transiently suspended DLD-1 cells; assay: Apoptosis of transiently suspended cells during readhesion (annexin V assay); conditions: DLD-1 transiently suspended, treated and allowed to readhere; 8 hours
Protocol: (§1) The transiently suspended cells were lysed and allowed to bind to DNA oligonucleotides, containing the NF-κB consensus binding site, that were immobilized to 96-well plates. NF-κB protein bound to the oligonucleotides was detected by an antibody to the p65 subunit that only recognized p65 that is bound to DNA. The positive control was HeLa cells that were stimulated with TNFα. A control was performed using excess free NF-κB oligonucleotides (Competitor). […] NF-κB binding activity was determined by the TransAM assay as in FIG. 5A. […] The data shown represent typical results of three separate experiments. […] An immunoblot for COX-2 was performed.
(§2) Single cell suspensions were plated at 100,000 cells per well in 24-well plates in media containing DMSO, BAY 11-7082, BAY 11-7085, or MG-132 for 8-24 hours in an incubator. Alternatively, DMSO, BAY 11-7082, BAY 11-7085, or MG-132 were added to cells that were confluent and adherent for several days. The nonadherent cells were aspirated off with the media and spun for 3 minutes at 2,000 rpm in 15 mL polypropylene tubes. […] 400 μL of binding buffer was added to each tube and the cells were analyzed by flow cytometry immediately. The percent of apoptosis was determined as the percent of annexin V-positive, propidium iodide-negative cells of the total cells counted. […]

[2] = tested on: transiently suspended HCT-116 cells; assay: as above; conditions: HCT-116 transiently suspended, treated and allowed to readhere; 8 hours
Protocol: as §1, §2

NF-κB = NF-κB binding activity assay (TRANS-AM) in HT-29 cells
Protocol: as §1
Activation of NF-κB was also determined using the TRANS-AM™ assay (Active Motif, Carlsbad, Calif.) per the manufacturer's instructions. (Renard et al., “Development of a sensitive multi-well colorimetric assay for active NF-κB,” Nucleic Acids Res 29, E21, 2001). Briefly, cell monolayers on 60 mm dishes were washed with ice-cold PBS and removed by incubating in trypsin-PBS or scraping. The cells were centrifuged for 10 minutes at 1,000 rpm at 4° C. and resuspended for 10 minutes in 100 μL of 4° C. lysis buffer (20 mM HEPES (pH 7.5), 350 mM NaCl, 20% glycerol, 1% Igepal-CA630, 1 mM MgCl2, 0.5 mM EDTA, 0.1 mM EGTA, 1 μL of 1 M dithiothreitol and 10 μL of protease inhibitor cocktail (proprietary) per mL of lysis buffer). The lysates were centrifuged for 20 minutes at 14,000 g at 4° C. Lysates containing 5 μg of total protein were added to 20 μL of lysis buffer per well in 96-well dishes containing immobilized oligonucleotides corresponding to the NF-κB consensus DNA binding site (SEQ ID NO:2) (5′-[…]-3′). […] 100 μL of stop solution (0.5M H2SO4) was added to each well after which the absorbance was determined on a plate spectrophotometer at 450 nm. Specificity of binding was determined using 200-fold excess wildtype NF-κB oligonucleotides added at the time the cell lysates were added to the wells.
The same NF-κB binding assay was used to determine whether NF-κB inhibitors could diminish the activation of NF-κB by readhesion. […]

## CC(C)(C)c1ccc(S(=O)(=O)/C=C/C#N)cc1 [BAY 11-7085, (2E)-3-[4-(tertiarybutylphenyl)sulfonyl]-2-propenenitrile]
[1]
  BAY 11-7085-induced apoptosis during readhesion: showed the same propensity for BAY 11-7085-induced apoptosis
[2]
  BAY 11-7085-induced apoptosis during readhesion: HCT-116 cells did not
NF-κB; adherent cells, increasing concentrations, up to 50 μM, 8 hours
  constitutive NF-κB activation in adherent cells: relatively unaffected; also recorded: could not be inhibited
NF-κB; as little as 10 μM BAY 11-7085
  NF-κB activation induced by readhesion of transiently suspended colon cancer cells: almost totally inhibited
NF-κB; transiently suspended HT-29, increasing concentrations, 8 hours
  NF-κB activation caused by readhesion (TRANS-AM): dose-related inhibition of this NF-κB activation
